Experimental data taken from ChEMBL document CHEMBL3045975, “In vitro anti-inflammatory potential and QSAR analysis of oxazolo/thiazolo pyrimidine derivatives” (Med Chem Res, 2013).

Experiment: In vitro anti-inflammatory activity assessed as inhibition of heat-induced albumin denaturtion incubated for 15 min followed by heating measured after 10 min
Format: functional

Q: With `COc1ccc(/C=c2\oc3n(c2=O)C(c2ccccc2)C(C(=O)Nc2ccccc2)=C(C)N=3)cc1` (configuration not stated) as the compound, how does the IC50 read?
A: 304.179 ppm

Q: With `CC1=C(C(=O)Nc2ccccc2)C(c2ccc([N+](=O)[O-])cc2)n2c(s/c(=C\c3ccc(N(C)C)cc3)c2=O)=N1` (configuration not stated) as the compound, how does the IC50 read?
A: 336.75 ppm

Q: For `COc1ccc(/C=c2\oc3n(c2=O)C(c2ccc([N+](=O)[O-])cc2)C(C(=O)Nc2ccccc2)=C(C)N=3)cc1` (configuration not stated), which IC50 is on record?
A: 259.104 ppm

Q: Which IC50 does the source give for `CC1=C(C(=O)Nc2ccccc2)C(c2ccc([N+](=O)[O-])cc2)n2c(o/c(=C\c3ccc(Cl)cc3)c2=O)=N1` (configuration not stated) here?
A: 196.05 ppm

Q: For `CC1=C(C(=O)Nc2ccccc2)C(c2ccc([N+](=O)[O-])cc2)n2c(o/c(=C\c3ccc(N(C)C)cc3)c2=O)=N1` (configuration not stated), which IC50 is on record?
A: 339.35 ppm

Q: With `COc1ccc(C2C(C(=O)Nc3ccccc3)=C(C)N=c3s/c(=C\c4ccc([N+](=O)[O-])cc4)c(=O)n32)cc1` (configuration not stated) as the compound, how does the IC50 read?
A: 254.99 ppm

Q: Which IC50 does the source give for `COc1ccc(C2C(C(=O)Nc3ccccc3)=C(C)N=c3s/c(=C\c4ccc(N(C)C)cc4)c(=O)n32)cc1` (configuration not stated) here?
A: 301.677 ppm

Q: Which IC50 does the source give for `COc1ccc(C2C(C(=O)Nc3ccccc3)=C(C)N=c3o/c(=C\c4ccc(Cl)cc4)c(=O)n32)cc1` (configuration not stated) here?
A: 236.954 ppm

Q: For `COc1ccc(C2C(C(=O)Nc3ccccc3)=C(C)N=c3o/c(=C\c4ccc([N+](=O)[O-])cc4)c(=O)n32)cc1` (configuration not stated), which IC50 is on record?
A: 272.584 ppm

Q: With `COc1ccc(C2C(C(=O)Nc3ccccc3)=C(C)N=c3o/c(=C\c4ccc(N(C)C)cc4)c(=O)n32)cc1` (configuration not stated) as the compound, how does the IC50 read?
A: 314.544 ppm

Q: Which IC50 does the source give for `COc1ccc(/C=c2\sc3n(c2=O)C(c2ccc(Cl)cc2)C(C(=O)Nc2ccccc2)=C(C)N=3)cc1` (configuration not stated) here?
A: 232.597 ppm

Q: For `CC1=C(C(=O)Nc2ccccc2)C(c2ccc(Cl)cc2)n2c(s/c(=C\c3ccc([N+](=O)[O-])cc3)c2=O)=N1` (configuration not stated), which IC50 is on record?
A: 190.42 ppm

Q: Which IC50 does the source give for `CC1=C(C(=O)Nc2ccccc2)C(c2ccc(Cl)cc2)n2c(s/c(=C\c3ccc(N(C)C)cc3)c2=O)=N1` (configuration not stated) here?
A: 309.862 ppm

Q: Which IC50 does the source give for `COc1ccc(/C=c2\oc3n(c2=O)C(c2ccc(Cl)cc2)C(C(=O)Nc2ccccc2)=C(C)N=3)cc1` (configuration not stated) here?
A: 242.144 ppm

Q: Which IC50 does the source give for `CC1=C(C(=O)Nc2ccccc2)C(c2ccc(Cl)cc2)n2c(o/c(=C\c3ccc([N+](=O)[O-])cc3)c2=O)=N1` (configuration not stated) here?
A: 192.486 ppm

Q: For `CC1=C(C(=O)Nc2ccccc2)C(c2ccc(Cl)cc2)n2c(o/c(=C\c3ccc(N(C)C)cc3)c2=O)=N1` (configuration not stated), which IC50 is on record?
A: 319.524 ppm

Q: Which IC50 does the source give for `COc1ccc(/C=c2\sc3n(c2=O)C(c2ccc([N+](=O)[O-])cc2)C(C(=O)Nc2ccccc2)=C(C)N=3)cc1` (configuration not stated) here?
A: 250.38 ppm

Q: For `CC1=C(C(=O)Nc2ccccc2)C(c2ccc([N+](=O)[O-])cc2)n2c(s/c(=C\c3ccc(Cl)cc3)c2=O)=N1` (configuration not stated), which IC50 is on record?
A: 194.611 ppm

Q: For `COc1ccc(/C=c2\sc3n(c2=O)C(c2ccccc2)C(C(=O)Nc2ccccc2)=C(C)N=3)cc1` (configuration not stated), which IC50 is on record?
A: 291.257 ppm

Q: Which IC50 does the source give for `CC1=C(C(=O)Nc2ccccc2)C(c2ccccc2)n2c(s/c(=C\c3ccc(Cl)cc3)c2=O)=N1` (configuration not stated) here?
A: 226.318 ppm

Q: Which IC50 does the source give for `CC1=C(C(=O)Nc2ccccc2)C(c2ccccc2)n2c(s/c(=C\c3ccc([N+](=O)[O-])cc3)c2=O)=N1` (configuration not stated) here?
A: 253.376 ppm

Q: With `CC1=C(C(=O)Nc2ccccc2)C(c2ccccc2)n2c(s/c(=C\c3ccc(N(C)C)cc3)c2=O)=N1` (configuration not stated) as the compound, how does the IC50 read?
A: 316.686 ppm

Q: With `CC1=C(C(=O)Nc2ccccc2)C(c2ccccc2)n2c(o/c(=C\c3ccc(Cl)cc3)c2=O)=N1` (configuration not stated) as the compound, how does the IC50 read?
A: 261.464 ppm

Q: With `CC1=C(C(=O)Nc2ccccc2)C(c2ccccc2)n2c(o/c(=C\c3ccc([N+](=O)[O-])cc3)c2=O)=N1` (configuration not stated) as the compound, how does the IC50 read?
A: 283.525 ppm

Q: For `CC1=C(C(=O)Nc2ccccc2)C(c2ccccc2)n2c(o/c(=C\c3ccc(N(C)C)cc3)c2=O)=N1` (configuration not stated), which IC50 is on record?
A: 330.312 ppm

Q: Which IC50 does the source give for `COc1ccc(C2C(C(=O)Nc3ccccc3)=C(C)N=c3s/c(=C\c4ccc(Cl)cc4)c(=O)n32)cc1` (configuration not stated) here?
A: 210.874 ppm

Q: For `O=C([O-])Cc1ccccc1Nc1c(Cl)cccc1Cl.[Na+]` [DICLOFENAC SODIUM], which IC50 is on record?
A: 188.24 ppm
